Laboratory results published in patent US20210000894A1, “Anti-Stress Composition” (MORINAGA MILK INDUSTRY CO., LTD., priority 2018, published 2021).

Tested on: social defeat stress-bearing C57BL/6J mice
Test: Social defeat stress: escape time (time taken to be bitten 20 times by the male ICR mouse)
Format: in vivo
Conditions: for escape time, average value: C57BL/6J mice, L. helveticus as living cells orally once a day
Description: In the present experiment, an experiment of causing a small mouse to experience social defeat by allowing the small mouse to be bitten many times by a large mouse was carried out, and an effect of Lactobacillus helveticus on behavioral changes caused by social defeat stress (decrease in escape behavior, a lethargic state) was investigated. In the present experiment, C57BL/6J mice were used as social defeat stress-bearing mice. In a cage of male and female ICR mice cohabiting for three weeks or longer, only the male parent was left. A C57BL/6J mouse was brought into that cage, and the time taken by the C57BL/6J mouse to be bitten 20 times by the male parent mouse (escape time) was measured. As the escape time increases, it is implied that the C57BL/6J mouse attempts to escape from the ICR mouse, and therefore, it was determined that the social defeat stress is reduced. From two days before the beginning of giving social defeat stress until the end of the behavioral test, the experiment was carried out respectively for mice to which milnacipran was administered (Toledomin tablets; manufactured by Janssen Pharmaceutical K.K.) (positive control), mice to which nothing was administered (vehicle control), and mice to which living bacterial cells of Lactobacillus helveticus NITE BP-01671 were orally administered once a day using a sonde needle.

Structure (SMILES): CCN(CC)C(=O)C1(c2ccccc2)CC1CN (stereo not shown) [milnacipran]
- escape time compared to the vehicle control (in words) (C57BL/6J mice under social defeat stress, summary of Table 1): increased significantly compared to the vehicle control
- escape time, average value (Day 1, administered from two days before stress): 24.6 s
- escape time, average value (Day 2): 42.9 s
- escape time, average value (Day 3): 65.9 s
- escape time, average value (Day 4): 63.2 s
- escape time, average value (Day 5): 81.0 s
- escape time, average value (Day 8): 114.8 s
- escape time, average value (Day 9): 159.0 s
- escape time, average value (Day 10): 183.2 s
- escape time, average value (Day 11): 183.9 s
- escape time, average value (Day 12): 143.2 s
- escape time, average value (Day 15): 68.7 s
- escape time, average value (Day 16): 46.9 s
